Measurements as given in paper PMC4145793, “Inhibitory and Acceleratory Effects of Inonotus obliquus on Tyrosinase Activity and Melanin Formation in B16 Melanoma Cells” (Evidence-based Complementary and Alternative Medicine : eCAM, 2014).
≈ marks a conversion by molar mass, not a printed value. Where “and” joins values, the source holds several entries; their conditions need not be identical. Equal values may be shown once. Read-outs that look alike come from different tables or passages of the source.

Key:
[1] = target: T1, tyrosinase in B16 melanoma cells (Mus musculus, UniProt P11344); experiment: kinetic analysis of tyrosinase activity inhibition, B16 lysate protein, L-DOPA substrate, Lineweaver-Burk plot; type: biochemical; details: for K IS (inhibition constant) / mode of inhibition: L-DOPA substrate; for K IS (inhibition constant): from intercept of Lineweaver-Burk plots; for mode of inhibition: Lineweaver-Burk plot
T1 construct: Each well of a 96-well plate contained 40 μg of lysate protein; endogenous in cells; host or cells: B16 melanoma cells (lysate)
T1 sequence (P11344 19-533): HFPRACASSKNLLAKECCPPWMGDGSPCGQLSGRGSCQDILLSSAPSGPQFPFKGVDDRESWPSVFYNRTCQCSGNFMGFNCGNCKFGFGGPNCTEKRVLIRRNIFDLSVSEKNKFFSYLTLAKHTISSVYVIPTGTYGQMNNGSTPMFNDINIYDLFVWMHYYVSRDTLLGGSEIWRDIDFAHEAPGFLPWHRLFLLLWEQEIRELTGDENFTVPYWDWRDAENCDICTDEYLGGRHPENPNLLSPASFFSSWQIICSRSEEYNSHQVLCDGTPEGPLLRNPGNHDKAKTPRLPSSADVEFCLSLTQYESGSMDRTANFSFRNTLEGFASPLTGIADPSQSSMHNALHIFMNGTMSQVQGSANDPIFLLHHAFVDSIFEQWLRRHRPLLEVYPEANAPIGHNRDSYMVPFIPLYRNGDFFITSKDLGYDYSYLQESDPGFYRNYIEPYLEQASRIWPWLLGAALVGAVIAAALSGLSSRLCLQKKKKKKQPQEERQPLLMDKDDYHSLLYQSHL
Procedure: The cells were treated with test compounds as described above for the determination of tyrosinase activity. […] After incubation at 37°C for 30 min, the absorbance was measured at 475 nm. The inhibition constants for compounds and inhibition type were calculated using Lineweaver-Burk plot. The Lineweaver-Burk plot was widely used to determine important terms in enzyme kinetics, such as K m and V max. The plot provided a useful graphical method for analysis of the Michaelis-Menten equation: V = V max [S]/(K m + [S]). It took the reciprocal gave Lineweaver-Burk plot: 1/V = (K m + [S])/V max [S] = ((K m/V max)(1/ [S])) + (1/V max), where V is the reaction velocity (the reaction rate), K m is the Michaelis-Menten constant, V max is the maximum reaction velocity, and [S] is the substrate concentration. The y-intercept of such a graph was equivalent to the inverse of V max; the x-intercept of the graph represents −1/K m. It also gave a quick, visual impression of the different forms of enzyme inhibition. The inhibition constant (K I or K IS) was generated from the slope of the apparent […]/V max or 1/V max versus the concentrations of compounds.

B16 melanoma cells [2] = experiment: cellular melanin content in B16 melanoma cells; type: cell-based; details: 100-400 μM, 72 h
Procedure: For melanin content, the cells were treated with test compounds or kojic acid in the presence or absence of α-MSH as described above. The cells were washed with PBS and lyzed with 800 μL of 1 N NaOH (Sigma, USA) containing 10% DMSO for 1 h at 80°C. The absorbance at 400 nm was measured. The melanin content was determined from a standard curve prepared from an authentic standard of synthetic melanin (Sigma, USA).

B16 melanoma cells [3] = experiment: cell apoptosis rate, AnnexinV-FITC flow cytometry; type: cell-based; details: 72 h
Procedure: (§1) To determine the safety of the various compounds, after treatment with the test compounds cell viability was determined by using MTT colorimetric assay and cell apoptosis rate by using AnnexinV-FITC apoptosis analysis kit (Tianjin Sungene Biotech Co., Ltd). 1 × 10^6 cells were added to individual wells of a 24-well plate. […] Cell viability was determined in a colorimetric assay using mitochondrial dehydrogenase activity in active mitochondria to form purple formazan. Apoptosis rate in a fluorochrome assay using flow cytometry (BD, USA).

[4] = test system: cellular tyrosinase in B16 melanoma cells; experiment: cellular tyrosinase activity in B16 melanoma cells; type: cell-based; details: for inhibition at 400 µM: Mus musculus, read-out: inhibition on cellular tyrosinase activity; for effect on cellular tyrosinase activity: 100-400 μM
[5] = cell viability, MTT colorimetric assay; type: cell-based; details: mouse
Procedure: as §1

B16 melanoma cells [6] = experiment: cell viability, MTT colorimetric assay; type: cell-based; details: for reduction of viable cells: at the higher doses; for cytotoxic activity (reduction of viable cells): dose of 100 μM; for cytotoxic effect: 100, 200, 400 μM, as a whole
Procedure: as §1

[7] = target: T1, tyrosinase in B16 melanoma cells; experiment: kinetic analysis of tyrosinase activity inhibition, B16 lysate protein, L-DOPA substrate, Lineweaver-Burk plot; type: biochemical; details: read-out: AC50, negative inhibition (acceleration) effect on tyrosinase
Mushroom tyrosinase = experiment: cell-free mushroom tyrosinase assay of fractions (L-Tyr substrate); type: biochemical; details: L-Tyr as substrate, fractions at 0-12 μg/mL
Procedure: Mushroom tyrosinase and L-Tyr were reconstituted in 50 mM Na2HPO4-NaH2PO4 buffer (pH 6.8) at 1000 U/mL and 2.5 mM, respectively. A mixture of 60 μL of 50 mM Na2HPO4-NaH2PO4 buffer (pH 6.8) and 100 μL L-Tyr was designated as solution 1 (control group). […] Solutions 1 and 2 were added to 40 μL tyrosinase for 6 min reaction time at 37°C, individually. Absorbance of the resulting solutions was recorded every min by Beckman TU-1810 spectrophotometer at 475 nm. One unit of tyrosinase activity was arbitrarily defined as a rate of increase of 1 absorbance unit per min in the initial linear region of a plot of absorbance against time. The tyrosinase activity determined by the increasing absorbance at 475 nm accompanying by the oxidation of the substrates was calculated as the following formula [20]: (1) Tyrosinase activity %=A2/A1×100, where A1 is absorbance at 475 nm with solutions 1 and tyrosinase and A2 is absorbance at 475 nm with solutions 2 and tyrosinase.

[8] = α-MSH-stimulated (100 μM α-MSH)
[9] = 100 μM, control set as 0% (mean ± SD)
[10] = 200 μM, control set as 0% (mean ± SD)
[11] = 400 μM, control set as 0% (mean ± SD)
[12] = absence of α-MSH stimulation, 72 h
[13] = α-MSH-stimulated (100 μM α-MSH), 72 h
[14] = 100 μM, 72 h, percentage of controls (mean ± SD), read-out: Cell viability
[15] = 200 μM, 72 h, percentage of controls (mean ± SD), read-out: Cell viability
[16] = 400 μM, 72 h, percentage of controls (mean ± SD), read-out: Cell viability
[17] = B16 melanoma cells, 100 μM, 72 h, percentage of controls (mean ± SD), read-out: Cell viability
[18] = B16 melanoma cells, 200 μM, 72 h, percentage of controls (mean ± SD), read-out: Cell viability
[19] = B16 melanoma cells, 400 μM, 72 h, percentage of controls (mean ± SD), read-out: Cell viability

SMILES | effect on cellular melanin content (B16 melanoma cells [2]; absence of α-MSH stimulation) | effect on cellular melanin content (B16 melanoma cells [2]; [8]) | Apoptosis rate (B16 melanoma cells [3]; [9]) | Apoptosis rate (B16 melanoma cells [3]; [10]) | Apoptosis rate (B16 melanoma cells [3]; [11]) | effect on cellular tyrosinase activity [4, 12] | effect on cellular tyrosinase activity [4, 13] | viability at 72 h, 100 µM [5, 17] [%] | viability at 72 h, 200 µM [5, 18] [%] | viability at 72 h, 400 µM [5, 19] [%] | cytotoxic effect (B16 melanoma cells [6]) | also measured
C=C(C)[C@@H]1CC[C@]2(CO)CC[C@]3(C)[C@H](CC[C@@H]4[C@@]5(C)CC[C@H](O)C(C)(C)[C@@H]5CC[C@]43C)[C@@H]12 [Fa-a, betulin] | reduced cellular melanin content | reduced cellular melanin content | 9.01 ± 2.21% | 12.21 ± 3.03% | 15.31 ± 2.90% | significantly reduced cellular tyrosinase activity | able to inhibit the increase in cellular tyrosinase activity |  |  |  |  | IC50 [1]: 5.13 µM; Ki [1]: 0.4 µM; K IS (inhibition constant) [1]: 0.4 µM; mode of inhibition [1]: noncompetitive inhibitor; mode of inhibition ([1]; listed as Betulin): noncompetitive inhibition; inhibition at 400 µM ([4]; B16, 400 μM, 72 h, absence of α-MSH): 30%; viability at 72 h, 100 µM [5, 14]: 88.3 ± 3.21%; viability at 72 h, 200 µM [5, 15]: 75.1 ± 2.65%; viability at 72 h, 400 µM [5, 16]: 65.3 ± 4.41%; reduction of viable cells (B16 melanoma cells [6]): 34.68%; cytotoxic activity (reduction of viable cells) (B16 melanoma cells [6]): 11.69%
CC(C)=CCC[C@@H](C(=O)O)[C@H]1CC[C@@]2(C)C3=C(CC[C@]12C)[C@@]1(C)CC[C@H](O)C(C)(C)[C@@H]1CC3 [Fa-b, trametenolic acid] | reduced cellular melanin content | reduced cellular melanin content | 5.11 ± 4.01% | 6.51 ± 3.31% | 10.09 ± 4.31% | significantly reduced cellular tyrosinase activity | able to inhibit the increase in cellular tyrosinase activity |  |  |  |  | IC50 [1]: 7.25 µM; Ki [1]: 0.9 µM; K IS (inhibition constant) [1]: 0.5 µM; mode of inhibition [1]: mixed inhibitor; mode of inhibition ([1]; listed as trametenolic acid): mixed inhibition; inhibition at 400 µM ([4]; B16, 72 h): 23%; viability at 72 h, 100 µM [5, 14]: 96.5 ± 3.08%; viability at 72 h, 200 µM [5, 15]: 85.3 ± 4.13%; viability at 72 h, 400 µM [5, 16]: 70 ± 2.05%; reduction of viable cells (B16 melanoma cells [6]): 29.98%; cytotoxic activity (reduction of viable cells) (B16 melanoma cells [6]): 4.55%
CC(C)=CC[C@@H](O)[C@@H](C)[C@H]1CC[C@@]2(C)C3=C(CC[C@]12C)[C@@]1(C)CC[C@H](O)C(C)(C)[C@@H]1CC3 [Fb-a, inotodiol] | significantly increased melanin content and cellular tyrosinase activity | significantly increased melanin content and cellular tyrosinase activity | 3.91 ± 3.27% | 5.10 ± 2.61∗ % | 6.07 ± 3.53∗∗ % |  | significantly increased melanin content and cellular tyrosinase activity | 99.3 ± 1.53 | 99.4 ± 1.41 | 98.2 ± 1.35 | a little or no cytotoxic effect | AC50 [1]: 9.74 µM; increase of cellular tyrosinase activity ([4]; 400 μM, 72 h, absence of α-MSH): 21.24%
CC(C)=CCC[C@@H](C)[C@H]1CC[C@@]2(C)C3=C(CC[C@]12C)[C@@]1(C)CC[C@H](O)C(C)(C)[C@@H]1CC3 [Fb-b, lanoserol] | significantly increased melanin content and cellular tyrosinase activity | significantly increased melanin content and cellular tyrosinase activity | 0.31 ± 4.37∗∗∗ % | 2.62 ± 3.33∗∗∗ % | 5.12 ± 2.35∗ % |  | significantly increased melanin content and cellular tyrosinase activity | 100 ± 2.56 | 96.3 ± 2.61 | 94.6 ± 3.03 | a little or no cytotoxic effect | AC50 [7]: 8.43 µM; increase of cellular tyrosinase activity ([4]; 400 μM, 72 h, absence of α-MSH): 18.21%
O=C(O)c1cccnc1 [Fc-a, nicotinie acid] |  |  | 10.12% and 10.12 ± 1.14% | 25.44% and 25.44 ± 1.53∗∗∗ % | 30.51% and 30.51 ± 1.11∗∗∗ % | slight or no inhibition |  | 73.5 ± 3.11 | 45.3 ± 2.56 | 40.5 ± 2.12 | highest cytotoxic effect in dose-dependent manner | 
CC(C(O)CCC(C)(C)O)[C@H]1CC[C@@]2(C)C3=C(CC[C@]12C)[C@@]1(C)CC[C@H](O)C(C)(C)[C@@H]1CC3 (stereo partly drawn) [Fd-a, 3β,22,25-trihydroxy-lanosta-8-ene] |  |  |  |  |  | slight or no inhibition |  |  |  |  |  | Apoptosis rate (B16 melanoma cells [3]; mouse, 100 μM): 1.21 ± 2.31%; Apoptosis rate (B16 melanoma cells [3]; mouse, 200 μM): 2.15 ± 3.92%; viability at 72 h, 100 µM [5]: 96.7 ± 1.01%; viability at 72 h, 200 µM [5]: 97.1 ± 1.12%; viability at 72 h, 400 µM [5]: 85 ± 1.51%
O=c1cc(CO)occ1O [kojic acid, Kojic acid, reference compound] | reduced tyrosinase activity as well as melanin content | reduced tyrosinase activity as well as melanin content | 9.45 ± 1.15% | 12.36 ± 1.19% | 15.05 ± 2.21% | reduced tyrosinase activity as well as melanin content | reduced tyrosinase activity as well as melanin content | 92.4 ± 4.41 | 86.1 ± 2.12 | 70.9 ± 3.12 |  | IC50, tyrosinase inhibitory activity (Mushroom tyrosinase): 5.23 µg/mL (≈ 36.8 µM)
